Measured values published in patent US20250312258A1, “2,3-PYRROLIDINEDIONE CONJUGATES AND METHODS OF USING THEREOF” (North Carolina State University, priority 2022, published 2025).
≈ marks a conversion by molar mass, not a printed value. Where two headings read alike, the source gives them in different places.

Key:
[1] = tested on: S. aureus 25923; assay: Broth microdilution MIC, S. aureus 25923; assay type: cell-based, Staphylococcus aureus; conditions: Staphylococcus aureus, 25923; read-out: MIC (S. aureus 25923)
[2] = tested on: S. aureus 29213; assay: Broth microdilution MIC, S. aureus 29213; assay type: cell-based, Staphylococcus aureus; conditions: Staphylococcus aureus
[3] = tested on: MRSA 33591; assay: Broth microdilution MIC, MRSA 33591; assay type: cell-based; conditions: Staphylococcus aureus, read-out: MIC (MRSA 33591)
[4] = tested on: VRSA; assay: MIC against VRSA (Table 2); assay type: cell-based; conditions: Staphylococcus aureus, read-out: MIC (VRSA)
[5] = tested on: vanA VRE 700221; assay: MIC against vanA VRE 700221; assay type: cell-based, Enterococcus spp.; conditions: Enterococcus
[6] = tested on: vanC-1 VRE 49608; assay: MIC against vanC-1 VRE 49608; assay type: cell-based, Enterococcus spp.; conditions: Enterococcus
[7] = tested on: VRSA; assay: MIC against VRSA strain panel (VRS/NRS strains); assay type: cell-based; conditions: Staphylococcus aureus, read-out: MIC
[8] = tested on: VRE; assay: MIC / in vitro activity against VRE strain panel; assay type: cell-based, Enterococcus spp.; conditions: for MIC: Enterococcus, VRE, read-out: MIC
[9] = tested on: MRSA; assay: MIC against MRSA strain panel; assay type: cell-based; conditions: Staphylococcus aureus, the 4th table, read-out: MIC
[10] = tested on: MSSA; assay: MIC against MSSA strain panel; assay type: cell-based; conditions: Staphylococcus aureus, the 4th table, read-out: MIC

## CCC1C(c2ccc(C(F)(F)F)cc2)=C(O)C(=O)N1C1CCC(NC)CC1 (stereo not shown) [Compound 4]
[1]
  MIC: 0.5 µg/mL (≈ 1.31 µM)
[2]; 29213, read-out: MIC (S. aureus 29213)
  MIC: 0.5 to 1 µg/mL (≈ 1.31 to 2.61 µM)
[2]; ATCC 29213 / MRSA, ATCC 29213 MRSA, the 4th table, read-out: MIC
  MIC: 2 µg/mL (≈ 5.23 µM)
[2]; ATCC 29213 / MRSA, ATCC 29213 MRSA, the 5th table, read-out: MIC
  MIC: 1 µg/mL (≈ 2.61 µM)
[3]
  MIC: 1 µg/mL (≈ 2.61 µM)
[4]
  MIC: 1 µg/mL (≈ 2.61 µM)
[5]; VRE, the 2nd table, read-out: MIC (vanA VRE 700221)
  MIC: 8 µg/mL (≈ 20.9 µM)
[5]; vanA VRE 700221, the 3rd table, read-out: MIC
  MIC: 8 µg/mL (≈ 20.9 µM)
[6]; VRE, the 2nd table, read-out: MIC (vanC-1 VRE 49608)
  MIC: 0.5 µg/mL (≈ 1.31 µM)
[6]; vanC-1 VRE 49608, the 3rd table, read-out: MIC
  MIC: 0.5 µg/mL (≈ 1.31 µM)
[7]; NRS 1 / VRSA, NRS-1 (VRSA), the 3rd table
  MIC: 4 µg/mL (≈ 10.5 µM)
[7]; NRS 1 / VRSA, NRS-1 VRSA, the 5th table
  MIC: 4 µg/mL (≈ 10.5 µM)
[7]; NRS 2 / VRSA, NRS-2 VRSA, the 5th table
  MIC: 2 µg/mL (≈ 5.23 µM)
[7]; VRSA, VRS-1 (VRSA), the 3rd table
  MIC: 16 µg/mL (≈ 41.8 µM)
[7]; VRSA, VRS-1 VRSA, the 5th table
  MIC: 16 µg/mL (≈ 41.8 µM)
[7]; VRSA, VRS-2 (VRSA), the 3rd table
  MIC: 4 µg/mL (≈ 10.5 µM)
[7]; VRSA, VRS-2 VRSA, the 5th table
  MIC: 4 µg/mL (≈ 10.5 µM)
[7]; VRSA, VRS-3a VRSA, the 5th table
  MIC: 4 µg/mL (≈ 10.5 µM)
[7]; VRSA, VRS-3b VRSA, the 5th table
  MIC: > 64 µg/mL
[7]; VRSA, VRS-4 (VRSA), the 3rd table
  MIC: 4 µg/mL (≈ 10.5 µM)
[7]; VRSA, VRS-4 VRSA, the 5th table
  MIC: 8 µg/mL (≈ 20.9 µM)
[7]; VRSA, VRS-5 VRSA, the 5th table
  MIC: 8 µg/mL (≈ 20.9 µM)
[7]; VRSA, VRS-6 VRSA, the 5th table
  MIC: 16 µg/mL (≈ 41.8 µM)
[7]; VRSA, VRS-7 VRSA, the 5th table
  MIC: 8 µg/mL (≈ 20.9 µM)
[7]; VRSA, VRS-8 VRSA, the 5th table
  MIC: 16 µg/mL (≈ 41.8 µM)
[7]; VRSA, VRS-9 VRSA, the 5th table
  MIC: 16 µg/mL (≈ 41.8 µM)
[7]; VRSA, VRS-10 VRSA, the 5th table
  MIC: 16 µg/mL (≈ 41.8 µM)
[7]; VRSA, VRS-11a VRSA, the 5th table
  MIC: 16 µg/mL (≈ 41.8 µM)
[7]; VRSA, VRS-11b VRSA, the 5th table
  MIC: 16 µg/mL (≈ 41.8 µM)
[8]; 1593 (VRE), the 3rd table
  MIC: 8 µg/mL (≈ 20.9 µM)
[8]; 1593 VRE, the 4th table
  MIC: 8 µg/mL (≈ 20.9 µM)
[8]; 1751 (VRE), the 3rd table
  MIC: 4 µg/mL (≈ 10.5 µM)
[8]; 1751 VRE, the 6th table
  MIC: 4 µg/mL (≈ 10.5 µM)
[8]; 1772 VRE, the 6th table
  MIC: 8 µg/mL (≈ 20.9 µM)
[8]; 1946 VRE, the 6th table
  MIC: 8 µg/mL (≈ 20.9 µM)
[8]; 2059 VRE, the 6th table
  MIC: 8 µg/mL (≈ 20.9 µM)
[8]; 2431 (VRE), the 3rd table
  MIC: 8 µg/mL (≈ 20.9 µM)
[8]; 2431 VRE, the 6th table
  MIC: 8 µg/mL (≈ 20.9 µM)
[8]; 2574 VRE, the 6th table
  MIC: 8 µg/mL (≈ 20.9 µM)
[8]; 3053 VRE, the 6th table
  MIC: 16 µg/mL (≈ 41.8 µM)
[8]; 3183 (VRE), the 3rd table
  MIC: 4 µg/mL (≈ 10.5 µM)
[8]; 3183 VRE, the 6th table
  MIC: 4 µg/mL (≈ 10.5 µM)
[8]; 3190 VRE, the 6th table
  MIC: 8 µg/mL (≈ 20.9 µM)
[8]; 3191 VRE, the 6th table
  MIC: 8 µg/mL (≈ 20.9 µM)
[8]; 3222 (VRE, the 3rd table)
  MIC: 8 µg/mL (≈ 20.9 µM)
[8]; 3222 VRE, the 6th table
  MIC: 8 µg/mL (≈ 20.9 µM)
[8]; 3235 VRE, the 6th table
  MIC: 8 µg/mL (≈ 20.9 µM)
[8]; 3239 VRE, the 6th table
  MIC: 8 µg/mL (≈ 20.9 µM)
[8]; 3241 VRE, the 6th table
  MIC: 8 µg/mL (≈ 20.9 µM)
[8]; 3623 VRE, the 6th table
  MIC: 8 µg/mL (≈ 20.9 µM)
[8]; FIGS. 4A-4D
  in vitro activity against vancomycin-resistant Enterococcus spp. (VRE) compared with vancomycin: superior in vitro activity
[9]; 6215 MRSA
  MIC: 1 µg/mL (≈ 2.61 µM)
[9]; 6217 MRSA
  MIC: 1 µg/mL (≈ 2.61 µM)
[9]; 6218 MRSA
  MIC: 1 µg/mL (≈ 2.61 µM)
[9]; 6220 MRSA
  MIC: 1 µg/mL (≈ 2.61 µM)
[9]; 6231 MRSA
  MIC: 1 µg/mL (≈ 2.61 µM)
[9]; AR-978 MRSA
  MIC: 1 µg/mL (≈ 2.61 µM)
[9]; AR-979 MRSA
  MIC: 1 µg/mL (≈ 2.61 µM)
[9]; AR-993 MRSA
  MIC: 1 µg/mL (≈ 2.61 µM)
[9]; AR-997 MRSA
  MIC: 1 µg/mL (≈ 2.61 µM)
[10]; VGP16-94 MSSA
  MIC: 1 µg/mL (≈ 2.61 µM)
[10]; VGP16-95 MSSA
  MIC: 2 µg/mL (≈ 5.23 µM)
[10]; VGP16-96 MSSA
  MIC: 1 µg/mL (≈ 2.61 µM)
[10]; VGP16-97 MSSA
  MIC: 1 µg/mL (≈ 2.61 µM)
